Target: T1, Estrogen Receptor (Homo sapiens, UniProt P03372)
T1 sequence (P03372 1-595): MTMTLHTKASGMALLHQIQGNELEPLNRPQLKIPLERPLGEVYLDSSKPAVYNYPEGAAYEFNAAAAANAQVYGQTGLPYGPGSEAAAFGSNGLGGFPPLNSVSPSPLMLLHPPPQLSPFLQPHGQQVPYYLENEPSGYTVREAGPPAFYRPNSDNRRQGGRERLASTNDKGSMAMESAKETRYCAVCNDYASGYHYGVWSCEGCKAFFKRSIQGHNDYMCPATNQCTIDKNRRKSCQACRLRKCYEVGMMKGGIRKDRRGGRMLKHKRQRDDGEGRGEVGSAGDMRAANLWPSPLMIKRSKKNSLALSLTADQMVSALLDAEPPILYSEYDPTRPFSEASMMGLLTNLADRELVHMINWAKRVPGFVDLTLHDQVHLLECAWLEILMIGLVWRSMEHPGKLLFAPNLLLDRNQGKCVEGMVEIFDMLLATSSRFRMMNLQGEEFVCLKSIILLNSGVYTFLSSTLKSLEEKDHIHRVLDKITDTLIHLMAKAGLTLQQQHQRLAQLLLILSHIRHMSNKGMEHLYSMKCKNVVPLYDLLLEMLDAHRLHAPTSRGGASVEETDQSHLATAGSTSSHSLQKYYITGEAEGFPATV
Assay: Tendency to link to estrogen receptor (IC50 of bisphenols and reference compounds, Table 1)
Assay type: binding
Conditions: concentration required to substitute 50% of genuine hormone linked to receptor

Q: For `CCCCCCCCCc1ccc(O)cc1` [4-Nonylphenol], which IC50 is on record?
A: Its IC50 is 3.9 µM.

— US6469127B1, “Polycarbonate resin having low tendency of releasing environmental endocrine disruptors” (Space Environmental Technology Company, Inc,, priority 1999, dated 2002)
